Test results: PMC5394417, “Investigating the molecular mechanism of positive and negative allosteric modulators in the calcium-sensing receptor dimer” (Scientific Reports, 2017)

Molecular target: T1, HA-I841A CaSR mutant (Rattus norvegicus, UniProt P48442, I841A)
T1 construct: mGluR5 signal peptide (N); expressed in transfected cells; host or cells: HEK293T
T1 sequence (P48442 20-1079 I841A): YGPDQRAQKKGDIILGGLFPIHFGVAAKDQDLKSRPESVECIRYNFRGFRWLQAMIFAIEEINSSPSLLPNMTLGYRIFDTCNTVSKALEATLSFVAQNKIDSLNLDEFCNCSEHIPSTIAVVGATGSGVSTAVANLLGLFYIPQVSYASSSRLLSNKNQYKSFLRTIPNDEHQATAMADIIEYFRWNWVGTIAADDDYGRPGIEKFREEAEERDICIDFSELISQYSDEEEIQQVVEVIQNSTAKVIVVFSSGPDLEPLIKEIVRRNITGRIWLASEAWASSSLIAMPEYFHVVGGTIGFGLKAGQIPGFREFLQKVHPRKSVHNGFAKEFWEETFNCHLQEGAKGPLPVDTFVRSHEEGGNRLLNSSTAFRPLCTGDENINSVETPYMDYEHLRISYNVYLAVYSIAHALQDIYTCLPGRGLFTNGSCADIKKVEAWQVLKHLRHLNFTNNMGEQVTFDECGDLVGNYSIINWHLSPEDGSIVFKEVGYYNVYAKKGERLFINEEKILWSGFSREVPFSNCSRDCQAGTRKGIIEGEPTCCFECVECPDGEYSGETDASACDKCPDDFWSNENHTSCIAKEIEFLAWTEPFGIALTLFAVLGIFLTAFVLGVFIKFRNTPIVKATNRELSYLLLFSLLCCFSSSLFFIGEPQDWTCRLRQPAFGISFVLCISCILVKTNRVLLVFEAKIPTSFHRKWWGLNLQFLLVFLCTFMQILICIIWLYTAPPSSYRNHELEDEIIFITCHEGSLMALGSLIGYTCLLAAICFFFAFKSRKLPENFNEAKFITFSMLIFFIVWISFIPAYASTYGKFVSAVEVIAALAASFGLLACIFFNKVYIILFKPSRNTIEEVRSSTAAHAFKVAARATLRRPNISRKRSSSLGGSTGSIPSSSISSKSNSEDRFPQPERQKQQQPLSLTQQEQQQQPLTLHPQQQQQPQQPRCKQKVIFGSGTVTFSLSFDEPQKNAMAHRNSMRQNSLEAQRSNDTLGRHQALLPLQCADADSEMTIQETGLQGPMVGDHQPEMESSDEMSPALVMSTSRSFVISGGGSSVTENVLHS
Assay: IP-One assay, HEK293T transiently transfected
Format: cell-based

EC50 (Ca^2+ alone): 2.59 mM | pEC50 ± S.E.M. (Ca^2+ alone): 2.59 ± 0.01 | Max ± S.E.M. (Ca^2+ alone, normalized to maximum response of WT CaSR): 81 ± 14% | EC50 (Ca^2+ with 1 μM NPS R-568): 3.68 mM | Max ± S.E.M. (Ca^2+ with 1 μM NPS R-568, normalized to maximum response with Ca^2+ alone for the construct): 99 ± 18% | EC50 (Ca^2+ with 5 μM NPS 2143): 5.29 mM | pEC50 ± S.E.M. (Ca^2+ with 5 μM NPS 2143): 2.28 ± 0.03 | Max ± S.E.M. (Ca^2+ with 5 μM NPS 2143, normalized to maximum response with Ca^2+ alone for the construct): 97 ± 7.6%
SMILES: [Ca+2] [Ca^2+]
